Test results published in US4122189A, “Medicine for renal diseases” (priority 1976, dated 1978).

Assays:
mouse = experiment: Toxicity test (LD50); assay type: in vivo, ddY type mice; conditions: mice, oral and intraperitoneal
Protocol: The test was carried out by the oral dose and the intraperitoneal injection of each solution in 10 ddY type male mice and 10 ddY femal mice. The results after 72 hours from the administration were observed. Probit analysis was used for statistical treatment of mortality.

[1] = test system: patients having excessive urinary protein; conditions: 150 to 1800 mg/day, with or without additional medicines
Protocol: When used in combination, the additional medicines were dosed in the amount usual for each of such additional medicines.
The amount of urine protein was measured for the clinical tests. The elimination or remarkable degree of reduction of urine protein was considered to be effective.
The non-steroid anti-inflammatory agents such as Ibuprofen, Indomethacin, Azapropazone, and steroids such as Predonizolone and antibiotics such as Cephalexin, methyl chlorophenyl iso-oxazolyl penicillin were used as the additional medicines.

[2] = test system: hetero antikidney serum nephritis; experiment: Therapy for hetero antikidney serum nephritis; assay type: in vivo, Wister type male rats; conditions: 1000 mg/kg/day oral
Protocol: Antikidney serum (rabbit) prepared in accordance with the Heymann method was intravenously injected into tail vein at a dose of 0.5 ml per 100 g of rat at one time per day.
In Table 3, the symbols for tissue observation mean the following conditions of tissues.
A: proliferation of polymorphs of glomeruli
C: thickning of the basement membrane of the glomerular capillaries
D: obliteration of the glomerular capillary loops
F: exudate in Bowman's subcapsule space
G: thickning of Bowman's capsule
H: crescent formation of glomeruli
I: proteinaeous fluid in the tubli
J: swelling of tublar epithelium
K: proliferation of interstitial tissue cells
In Table 4, the degree of lesions were rated as follows:
0: no lesion of tissue is found;
0.5: slight lesion of tissue is found;
1: clear sporadic or slight lesion of tissue is found;
3: inflamed or clear lesion of tissue is found.
The average of ratings for 5 rats in each group is shown.
The level of significance was considered as the same with those of Table 1.

Aminonucleoside nephrose = experiment: Therapy for Aminonucleoside nephrose (urine and blood biochemical observations); assay type: in vivo, SD type male rats; conditions: 1000 mg/kg/day oral, 10 days
Protocol: SD type male rats (weight about 100 g) were fed in each individual room of a metabolism cage under the free water and feed supply.
The rats were classified as the normal group for eight rats, the renal disease group for eight rats and the therapy group for eight rats.
0.3% Aminoucleoside aqueous solution (hereinafter referring to as AN) was administrated by intramuscular injection at a dose of 0.3 ml per 100 g of the rat.
The administration was continued from the 1st day to the 14th day at one time per day.
The data in Tables are average value for eight rats in each group.
The difference between the renal disease group and the therapy group was significant. The symbol * means the existence of significant difference in 5% of the level of significance and the symbol (*) means the existence of significant difference in 5 to 1% of the level of significance. The symbol -- means non-significant difference.

[3] = average lesion rating 0-3 (3 inflamed or clear), normal 0, renal disease group 1.1, significance *
[4] = average lesion rating 0-3 (3 inflamed or clear), normal 0, renal disease group 1.7, significance *

C[S+](C)CCC(N)C(=O)O (stereo not shown) [Methyl methionine sulfonium chloride]
toxicity (mouse): low toxicity
effective cases (elimination or remarkable reduction of urine protein) [1]: 32 cases among 45 patients
Urine urea ([2]; 9 days, normal 6.3, renal disease group 121, non-significant): 104 mg/day
Urea nitrogen in blood ([2]; 9 days, normal 23, renal disease group 25, non-significant): 24 mg/dL
Observation of tissue F: exudate in Bowman's subcapsule space ([2]; average lesion rating 0-3 (3 inflamed or clear), normal 0, renal disease group 0, non-significant): 0
Observation of tissue K: proliferation of interstitial tissue cells ([2]; average lesion rating 0-3 (3 inflamed or clear), normal 0, renal disease group 0.2, non-significant): 0.3
Observation of tissue B: thrombus formation [2, 3]: 0.1
Observation of tissue G: thickning of Bowman's capsule [2, 3]: 0
Observation of tissue H: crescent formation of glomeruli [2, 3]: 0
Observation of tissue C: thickning of the basement membrane of the glomerular capillaries [2, 4]: 0.4
Observation of tissue D: obliteration of the glomerular capillary loops [2, 4]: 0.3
Observation of tissue E: anemia ([2]; average lesion rating 0-3 (3 inflamed or clear), normal 0, renal disease group 2.2, significance *): 0.1
Observation of tissue J: swelling of tublar epithelium ([2]; average lesion rating 0-3 (3 inflamed or clear), normal 0.5, renal disease group 1.6, non-significant): 1.3
Observation of tissue I: proteinaeous fluid in the tubli ([2]; average lesion rating 0-3 (3 inflamed or clear), normal 0.6, renal disease group 1.8, significance (*)): 0.8
Observation of tissue A: proliferation of polymorphs of glomeruli ([2]; average lesion rating (0 none, 0.5 slight, 1 clear sporadic or slight, 3 inflamed or clear), normal 0, renal disease group 1.4, significance (*)): 0.5
Urine albumin (Aminonucleoside nephrose; normal 0.1, renal disease group 2.4, significance *): 1.6 g/dL
Urine protein (Aminonucleoside nephrose; normal 0.6, renal disease group 5.2, significance *): 4.0 g/dL
Serum albumin (Aminonucleoside nephrose; normal 2.60, renal disease group 0.49, significance *): 1.25 g/dL
Serum K^+ (Aminonucleoside nephrose; normal 5.1, renal disease group 5.4, non-significant): 5.6 m Eq/l
Serum total protein (Aminonucleoside nephrose; normal 6.48, renal disease group 3.60, significance *): 4.47 g/dL
Urine albumin (Aminonucleoside nephrose; normal 6.6, renal disease group 196, significance *): 106 mg/day
Urine pH (Aminonucleoside nephrose; normal 6.7, renal disease group 6.5, significance (*)): 6.2
Urine amount (Aminonucleoside nephrose; normal 9.4, renal disease group 8.5, significance (*)): 6.9 mL/day
Serum urea nitrogen (Aminonucleoside nephrose; normal 25.2, renal disease group 44.8, significance *): 23.8 mg/dL
Urine protein (Aminonucleoside nephrose; normal 54, renal disease group 441, significance *): 294 mg/day
Serum cholesterol (Aminonucleoside nephrose; normal 84.3, renal disease group 277, significance *): 149 mg/dL
Serum Na^+ (Aminonucleoside nephrose; normal 134, renal disease group 135, non-significant): 134 m Eq/l
Urine Na (Aminonucleoside nephrose; normal 160, renal disease group 54, significance *): 109 m Eq/l
Serum glycose (Aminonucleoside nephrose; normal 169, renal disease group 135, non-significant): 138 mg/dL
Weight (Aminonucleoside nephrose; normal 180, renal disease group 196, significance *): 176 g
Urine K (Aminonucleoside nephrose; normal 230, renal disease group 204, non-significant): 210 m Eq/l
